Patent US10144723B2, “Treatment of solid tumors by inhibiting MRK/ZAK” (The Feinstein Institute For Medical Research, priority 2014, dated 2018)

Assays:
4T1 breast cancer cells = assay: MTT cell viability after X-ray irradiation; format: cell-based; settings: 4T1 cells, M443 6 hours before irradiation, MTT 72 hours after
Protocol: FIG. 8. […] 4T1 breast cancer cells were plated in 96-well plates (750 cells per well/8 wells per condition) and treated with M443 at the indicated concentrations 6 hours before irradiating at the indicated dosages. 72 hours after irradiation MTT solution (1.25 μg/μl) was added to all wells and incubated for an additional 3 hours before cell viability/mitochondrial activity was analyzed. Shown are the means+/−SD of 8 replicate wells.

p38 = assay: IR-induced signaling downstream of MRK, phospho-p38 western blot; format: cell-based; settings: UW228 cells, 500 nM M443 6 hours, 1 hour after IR
Protocol: (§1) FIG. 7. Inhibition of IR-induced signaling downstream of MRK by M443. UW228 medulloblastoma cells were treated with 500 nM of M443 or with vehicle for 6 hours, and then exposed to IR or not. One hour after IR treatment, cells were harvested and cell lysates were tested by western blot for the activities of MRK, p38 and Chk2 proteins using the respective phospho-specific antibodies.
(§2) By inhibiting MRK activity, M443 was expected to reduce signal transduction downstream of MRK. […] Thus, M443 inhibits MRK activation by IR and its downstream signaling events, which leads to loss of cell viability after exposure to IR.

Chk2 = assay: IR-induced signaling downstream of MRK, phospho-Chk2 western blot; format: cell-based; settings: UW228 cells, 500 nM M443 6 hours, 1 hour after IR
Protocol: as §1, §2

MRK [1] = biological target: T1, MRK (Homo sapiens, UniProt Q9NYL2); assay: Inhibition of endogenous MRK activity induced by radiation in medulloblastoma cells; format: cell-based; parameters: endogenous in cells; host or cells: UW228 medulloblastoma cells
Protocol: FIG. 7. Inhibition of IR-induced signaling downstream of MRK by M443. […] One hour after IR treatment, cells were harvested and cell lysates were tested by western blot for the activities of MRK, p38 and Chk2 proteins using the respective phospho-specific antibodies.

[2] = system: IMB226 medulloblastoma cells; assay: Animal model of medulloblastoma, orthotopic implantation, survival; format: in vivo, nude mice
Protocol: FIG. 9. Kaplan-Meier survival curve. Three weeks after implantation of IMB226 medulloblastoma cells in nude mice, animals were randomized into 4 groups of 12 mice for each treatment. M443 or the vehicle were delivered directly into the tumor via an ALZET pump.
The effect of M443 was tested in an animal model of medulloblastoma that employs orthotopic implantation of IMB226 medulloblastoma cells in nude mice. M443 was administered directly into the tumor using an osmotic pump that is connected to a catheter implanted into the brain in order to bypass the blood-brain barrier.

MRK [3] = biological target: T1, MRK; assay: MRK activity in K562 cells, western blot; format: cell-based; parameters: endogenous in cells; settings: 1 μM, 6 hours
Protocol: (§3) FIG. 11. M443 inhibits MRK activity, but not BCR-Abl. K562 cells were treated with DMSO, 1 μM Nilotinib or 1 μM M443 for 6 hours and then they were processed for western blot with the indicated antibodies.

MRK [4] = assay: Irreversible inhibition of MRK activity after washout (P-MRK western blot); format: cell-based; settings: cells expressing activatable MRK construct, pretreated 6 hours, washed, then homodimerizing drug
Protocol: FIG. 5. M443 inhibits MRK activity in an irreversible fashion. Cells expressing an activatable MRK construct were pretreated with the indicated inhibitors for 6 hours, then they were washed with PBS 3 times, incubated for 15 minutes, washed once more and after 15 minutes they were treated with the homodimerizing drug to activate MRK. Cell lysates were western blotted with the P-MRK antibody to detect active MRK (top blot). Histograms are data from quantified P-MRK bands from three independent experiments.

BCR-Abl = biological target: T2, BCR-Abl (Homo sapiens, UniProt P00519); assay: BCR-Abl activity in K562 cells, western blot; format: cell-based; settings: 1 μM, 6 hours
T2 construct: BCR (N-terminal fusion partner, P11274); endogenous in cells; host or cells: K562; the other entry of the earlier key: BCR (P11274, Breakpoint cluster region protein)
Protocol: as §3

MRK [5] = assay: Inhibition of MRK in vivo, brain lysates western blot; parameters: species or system nude mice; settings: 18 hours after pump implantation
Protocol: FIG. 10. Inhibition of MRK in vivo. Brains from control and M443-treated animals were harvested 18 hours after pump implantation. Each cerebellum was dissected from the rest of the brain and divided into left (L) and right (R), top (T) and bottom (B) portions. Brain lysates were tested for MRK activity by western blotting. Human HLA (hu-HLA) was used to identify the brain portions containing tumor cells of human origin. Tubulin was used as loading control.
To confirm that M443 administered into the brain inhibited MRK, brain extracts were obtained 18 hours after pump implantation, and MRK activity determined. […] The hu-HLA signal indicates the presence of tumor in the treated sample (lane 5).

c-Abl = c-Abl activity in brain lysates, phospho-Abl western blot; format: in vivo, nude mice; settings: treated versus untreated tumor
Protocol: M443 is a derivative of nilotinib, an inhibitor of the BCR-Abl oncogene. To examine the specificity of M443, the activity of c-Abl was also determined, by blotting the brain lysates with a phospho-Abl-(P-c-Abl) specific antibody. […] As Abl is known to respond to stress, the increase in P-c-Abl may be caused by M443-induced cell stress.

[6] = system: UW228 medulloblastoma cells; assay: Colony formation assay with radiation; format: cell-based; settings: 6 hours M443 before radiation, colonies counted after 7 days
Protocol: FIG. 6. M443 sensitizes UW228 medulloblastoma cells to radiation. UW228 cells were seeded for the colony formation assay at 500 cells/dish. The following day, they were treated for 6 hours with the indicated doses of M443 and then exposed to different doses of radiation. After incubation at 37° C. for 7 days, colonies larger than 50 cells were counted.

MRK [7] = biological target: T1, MRK; parameters: endogenous in cells; host or cells: UW228 medulloblastoma cells; settings: reference (6); cited from earlier work

T1 sequence (Q9NYL2 whole entry): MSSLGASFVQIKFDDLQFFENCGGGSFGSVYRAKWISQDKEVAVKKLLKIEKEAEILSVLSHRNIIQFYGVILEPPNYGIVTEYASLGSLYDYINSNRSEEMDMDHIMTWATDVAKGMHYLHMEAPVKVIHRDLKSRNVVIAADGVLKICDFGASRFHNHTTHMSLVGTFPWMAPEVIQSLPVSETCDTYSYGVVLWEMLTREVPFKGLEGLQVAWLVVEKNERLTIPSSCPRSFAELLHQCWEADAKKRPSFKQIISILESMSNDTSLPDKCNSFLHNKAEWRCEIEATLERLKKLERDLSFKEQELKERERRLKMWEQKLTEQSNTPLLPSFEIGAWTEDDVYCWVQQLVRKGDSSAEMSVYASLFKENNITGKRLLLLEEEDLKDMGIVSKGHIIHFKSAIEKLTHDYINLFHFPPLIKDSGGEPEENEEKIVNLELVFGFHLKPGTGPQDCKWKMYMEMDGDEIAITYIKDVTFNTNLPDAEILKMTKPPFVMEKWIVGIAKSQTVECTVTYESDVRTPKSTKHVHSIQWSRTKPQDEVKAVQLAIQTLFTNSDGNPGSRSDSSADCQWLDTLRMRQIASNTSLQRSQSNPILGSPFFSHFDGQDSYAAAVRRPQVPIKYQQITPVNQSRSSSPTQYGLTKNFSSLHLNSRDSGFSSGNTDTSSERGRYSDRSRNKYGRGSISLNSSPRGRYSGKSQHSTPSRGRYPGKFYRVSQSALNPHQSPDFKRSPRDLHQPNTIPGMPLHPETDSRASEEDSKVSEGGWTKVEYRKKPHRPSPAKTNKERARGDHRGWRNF
T2 sequence (P00519 with tags, fused parts or gaps): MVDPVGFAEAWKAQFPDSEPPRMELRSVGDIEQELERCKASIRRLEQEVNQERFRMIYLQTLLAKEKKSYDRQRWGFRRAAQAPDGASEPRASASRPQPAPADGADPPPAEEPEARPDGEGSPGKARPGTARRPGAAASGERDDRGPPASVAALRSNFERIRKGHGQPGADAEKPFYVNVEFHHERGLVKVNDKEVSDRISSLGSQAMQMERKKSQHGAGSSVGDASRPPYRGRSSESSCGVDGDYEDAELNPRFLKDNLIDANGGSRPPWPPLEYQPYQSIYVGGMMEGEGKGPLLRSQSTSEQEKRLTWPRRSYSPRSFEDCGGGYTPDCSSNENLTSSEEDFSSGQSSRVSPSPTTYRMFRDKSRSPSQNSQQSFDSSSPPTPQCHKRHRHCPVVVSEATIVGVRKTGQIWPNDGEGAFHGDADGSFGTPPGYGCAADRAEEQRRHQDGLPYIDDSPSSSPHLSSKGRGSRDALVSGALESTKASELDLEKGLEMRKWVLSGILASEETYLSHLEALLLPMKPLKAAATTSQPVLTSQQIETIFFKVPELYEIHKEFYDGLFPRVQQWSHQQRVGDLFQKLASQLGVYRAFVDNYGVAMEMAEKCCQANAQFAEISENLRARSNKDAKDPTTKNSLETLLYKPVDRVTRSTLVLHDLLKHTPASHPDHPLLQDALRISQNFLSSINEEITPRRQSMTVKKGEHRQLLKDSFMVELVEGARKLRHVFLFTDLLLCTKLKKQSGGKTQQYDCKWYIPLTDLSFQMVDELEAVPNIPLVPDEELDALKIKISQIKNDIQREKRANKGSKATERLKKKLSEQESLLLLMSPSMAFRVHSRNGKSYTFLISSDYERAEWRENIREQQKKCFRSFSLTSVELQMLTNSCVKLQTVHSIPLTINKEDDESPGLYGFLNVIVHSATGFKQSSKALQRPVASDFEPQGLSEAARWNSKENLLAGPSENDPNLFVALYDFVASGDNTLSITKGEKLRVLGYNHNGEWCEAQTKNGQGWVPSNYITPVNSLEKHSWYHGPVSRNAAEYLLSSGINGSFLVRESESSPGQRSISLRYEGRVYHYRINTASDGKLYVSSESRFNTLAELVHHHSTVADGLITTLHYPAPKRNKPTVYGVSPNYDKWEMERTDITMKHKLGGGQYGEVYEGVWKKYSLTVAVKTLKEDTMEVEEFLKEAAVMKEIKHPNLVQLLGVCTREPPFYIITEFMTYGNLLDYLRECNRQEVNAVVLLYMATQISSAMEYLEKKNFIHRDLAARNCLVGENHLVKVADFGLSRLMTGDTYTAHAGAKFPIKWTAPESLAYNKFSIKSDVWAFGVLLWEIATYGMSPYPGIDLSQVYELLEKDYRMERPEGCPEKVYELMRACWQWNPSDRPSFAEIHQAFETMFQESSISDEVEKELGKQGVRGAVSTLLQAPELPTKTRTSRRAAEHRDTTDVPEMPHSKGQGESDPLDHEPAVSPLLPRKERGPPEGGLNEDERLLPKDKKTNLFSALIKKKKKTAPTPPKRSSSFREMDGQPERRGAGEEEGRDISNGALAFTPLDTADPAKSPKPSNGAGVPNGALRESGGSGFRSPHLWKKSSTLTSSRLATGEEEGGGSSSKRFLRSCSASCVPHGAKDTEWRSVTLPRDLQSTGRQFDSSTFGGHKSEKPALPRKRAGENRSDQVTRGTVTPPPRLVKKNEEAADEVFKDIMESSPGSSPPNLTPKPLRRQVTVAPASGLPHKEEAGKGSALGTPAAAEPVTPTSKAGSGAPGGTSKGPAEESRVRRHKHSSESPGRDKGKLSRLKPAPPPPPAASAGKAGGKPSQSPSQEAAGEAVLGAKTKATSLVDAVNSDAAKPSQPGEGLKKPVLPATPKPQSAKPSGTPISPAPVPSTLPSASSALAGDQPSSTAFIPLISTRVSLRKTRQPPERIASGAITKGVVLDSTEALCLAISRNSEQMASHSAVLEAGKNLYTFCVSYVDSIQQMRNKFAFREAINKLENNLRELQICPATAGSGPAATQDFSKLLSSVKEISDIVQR

| Structure (SMILES) | sensitization to X-ray irradiation (MTT viability) (4T1 breast cancer cells) | activation of p38 by ionizing radiation (p38) | activation of Chk2 by ionizing radiation (Chk2) | IC50 (MRK [1]) | survival benefit, M443 on its own ([2]; IMB226 orthotopic in nude mice, M443 into the tumor via osmotic pump, no IR) | increase in survival, combination of M443 and IR ([2]; IMB226 orthotopic in nude mice, M443 into the tumor via osmotic pump, plus IR) | tumor hemorrhage ([2]; M443-treated tumors) | radiosensitization effect on survival ([2]; p<0.0029, 2×2 factorial Cox model) | inhibition of MRK activity in K562 cells (MRK [3]) | inhibition of MRK activity (P-MRK) after washout (MRK [4]) | inhibition of BCR-Abl in K562 cells (BCR-Abl) | P-MRK signal in brain lysates (MRK [5]) | total MRK levels in tumors (MRK [5]) | P-c-Abl signal in brain lysates (c-Abl) | sensitization to killing by radiation (colony formation) [6] | binding to MRK (MRK [7]) |
| --- | --- | --- | --- | --- | --- | --- | --- | --- | --- | --- | --- | --- | --- | --- | --- | --- |
| C=CC(=O)N1CCCC(c2ccnc(Nc3cc(C(=O)Nc4cc(-n5cnc(C)c5)cc(C(F)(F)F)c4)ccc3C)n2)C1 (stereo not shown) [M443] | sensitizes breast cancer cells to X-ray irradiation | greatly reduced | greatly reduced | ~125 nM | 5 days | 16 days | less hemorrhagic | very significant radiosensitization effect | as efficient as nilotinib | effectively inhibits MRK in an irreversible fashion | does not inhibit BCR-Abl | none of the fractions from the M443-treated animal had a detectable signal for P-MRK | strongly decreased | somewhat increased | strongly sensitized | – |
| Cc1cn(-c2cc(NC(=O)c3ccc(C)c(Nc4nccc(-c5cccnc5)n4)c3)cc(C(F)(F)F)c2)cn1 [nilotinib] | – | – | – | – | – | – | – | – | – | – | – | – | – | – | – | binds strongly to MRK |
